Structures can show the parent of a compound that is named as a salt. Where two headings read alike, the source gives them in different places.
Experiments:
[1] = tested on: coronary vasospasm model (lysine-vasopressin); test: Effects on coronary vasospasm model (lysine-vasopressin test), inhibition of ST-segment elevation; assay type: in vivo, male Wistar rats; details: Rattus norvegicus, lysine-vasopressin 0.3 I.U./kg iv, MED = minimum dose with depression rate of 20% or higher
male dd-mice = test: Acute toxicity; details: mouse, in vivo, 10080 min; for MLD i.p.: ip; for MLD p.o.: po
Procedure: The compounds were orally administered and intraperitoneally administered to male dd-mice weighing 20 to 25 g. […] was determined by observing the mortality for seven days after the administration.

[2] = ip, 20 min before anesthetization, read-out: Coronary vasoconstriction model MED i.p.
[3] = po, 30 min before anesthetization, read-out: Coronary vasoconstriction model MED p.o.

Row | SMILES | minimal effective dose [1, 2] [mg/kg] | MLD i.p. (male dd-mice) [mg/kg] | MLD p.o. (male dd-mice) [mg/kg] | minimal effective dose [1, 3] [mg/kg]
1 | O=[N+]([O-])O[C@H]1CO[C@H]2[C@@H]1OC[C@@H]2N1CCN(c2nc3ccccc3s2)CC1 [Compound 58, 5-[4-(Benzothiazol-2-yl)piperazin-1-yl]-5-deoxy-1.4;3.6-dianhydro-L-iditol 2-nitrate hydrochloride] | < 25 | > 100 | > 300 | 
2 | O=[N+]([O-])O[C@H]1CO[C@H]2[C@@H]1OC[C@@H]2N1CCN(c2nnnn2-c2ccccc2)CC1 [Compound 60, 5-Deoxy-5-[4-(1-phenyl-1H-tetrazol-5-yl)piperazin-1-yl-]-1.4;3.6-dianhydro-L-iditol 2-nitrate hydrochloride] | < 25 | > 100 | > 300 | 
3 | O=[N+]([O-])O[C@H]1CO[C@H]2[C@@H]1OC[C@@H]2N1CCN(c2nc3ccccc3[nH]2)CC1 [Compound 76, 5-[4-(Benzimidazol-2-yl)piperazin-1-yl]-5-deoxy-1.4;3.6-dianhydro-L-iditol 2-nitrate hydrochloride] |  | > 100 | > 300 | < 30
4 | COc1cc2nc(N3CCN([C@H]4CO[C@H]5[C@@H]4OC[C@@H]5O[N+](=O)[O-])CC3)nc(N)c2cc1OC [Compound 78, 5-[4-(4-Amino-6,7-dimethoxyquinazolin-2-yl)piperazin-1-yl]-5-deoxy-1.4;3.6-dianhydro-L-iditol 2-nitrate hydrochloride] |  | > 100 | > 300 | < 30
5 | O=C(c1cccnc1)N1CCN([C@H]2CO[C@H]3[C@@H]2OC[C@@H]3O[N+](=O)[O-])CC1 [Compound 80] | < 25 | > 100 | > 300 | < 30
6 | O=C(c1ccccn1)N1CCN([C@H]2CO[C@H]3[C@@H]2OC[C@@H]3O[N+](=O)[O-])CC1 [Compound 81, 5-Deoxy-5-[4-(pyridin-2-yl)carbonylpiperazin-1-yl]-1.4;3.6-dianhydro-L-iditol 2-nitrate hydrochloride] |  | > 100 | > 300 | < 30
7 | O=C(c1ccco1)N1CCN([C@H]2CO[C@H]3[C@@H]2OC[C@@H]3O[N+](=O)[O-])CC1 [Compound 83, 5-Deoxy-5-[4-(furan-2-yl)carbonylpiperazin-1-yl]-1.4;3.6-dianhydro-L-iditol2-nitrate hydrochloride] |  | > 100 | > 300 | < 30
8 | O=C(c1ccccc1)N1CCN([C@H]2CO[C@H]3[C@@H]2OC[C@@H]3O[N+](=O)[O-])CC1 [Compound 84, 5-(4-Benzoylpiperazin-1-yl)-5-deoxy-1.4;3.6-dianhydro-L-iditol 2-nitrate hydrochloride] | < 25 | > 100 | > 300 | 
9 | COc1ccc(C(=O)N2CCN([C@H]3CO[C@H]4[C@@H]3OC[C@@H]4O[N+](=O)[O-])CC2)c(OC)c1OC [Compound 87, 5-Deoxy-5-[4-(2,3,4-trimethoxybenzoyl)piperazin-1-yl]-1.4;3.6-dianhydro-L-iditol 2-nitratehydrochloride] |  | > 100 | > 300 | < 30
10 | O=C(c1ccc(Cl)nc1)N1CCN([C@H]2CO[C@H]3[C@@H]2OC[C@@H]3O[N+](=O)[O-])CC1 [Compound 89, 5-[4-(6-Chloropyridin-3-yl)carbonylpiperazin-1-yl]-5-deoxy-1.4;3.6-dianhydro-L-iditol 2-nitrate hydrochloride] |  | > 100 | > 300 | < 30
11 | Cc1ccc(C(=O)N2CCN([C@H]3CO[C@H]4[C@@H]3OC[C@@H]4O[N+](=O)[O-])CC2)cn1 [Compound 93, 5-Deoxy-5-[4-(6-methylpyridin-3-yl)carbonylpiperazin-1-yl]-1.4;3.6-dianhydro-L-iditol 2-nitrate hydrochloride] |  | > 100 | > 300 | < 30
12 | O=[N+]([O-])O[C@@H]1CO[C@H]2[C@@H]1OC[C@@H]2N1CCN(CCCSc2ccccc2)CC1 [Compound 96, 2-Deoxy-2-[4-(3-phenylthiopropyl)piperazin-1-yl]-1.4;3.6-dianhydro-D-glucitol 5-nitrate hydrochloride] | < 25 | > 100 | > 300 | 
13 | O[C@H]1CO[C@H]2[C@@H]1OC[C@@H]2N1CCN(CCCOc2ccccc2)CC1 [Compound 102, 5-Deoxy-5-[4-(3-phenoxypropyl)piperazin-1-yl]-1.4;3.6-dianhydro-L-iditol hydrochloride] | < 25 | > 100 | > 300 | < 30
14 | O=C(c1cccs1)N1CCN([C@H]2CO[C@H]3[C@@H]2OC[C@@H]3O[N+](=O)[O-])CC1 [Compound 111, 5-Deoxy-5-[4-(thiophen-2-yl)carbonylpiperazin-1-yl]-1.4;3.6-dianhydro-L-iditol 2-nitrate hydrochloride] |  | > 100 | > 300 | < 30
15 | O=C(c1ccoc1)N1CCN([C@H]2CO[C@H]3[C@@H]2OC[C@@H]3O[N+](=O)[O-])CC1 [Compound 112, 5-Deoxy-5-[4-(furan-3-yl)carbonylpiperazin-1-yl]-1.4;3.6-dianhydro-L-iditol2-nitrate hydrochloride] |  | > 100 | > 300 | < 30
16 | O=C(c1cccnc1)N1CC[N+]([O-])([C@H]2CO[C@H]3[C@@H]2OC[C@@H]3O[N+](=O)[O-])CC1 [Compound 113, 5-Deoxy-5-[4-(pyridin-3-yl)carbonylpiperazin N^1-oxid-1-yl]-1.4;3.6-dianhydro-L-iditol 2-nitrate hydrochloride] | < 25 | > 100 | > 300 | 
17 | O=C(c1ccc(O)nc1)N1CCN([C@H]2CO[C@H]3[C@@H]2OC[C@@H]3O[N+](=O)[O-])CC1 [Compound 114, 5-Deoxy-5-[4-(6-hydroxypyridin-3-yl)carbonylpiperazin-1-yl]-1.4;3.6-dianhydro-L-iditol 2-nitrate hydrochloride] |  | > 100 | > 300 | < 30

— US5053408A, “Hexitol derivatives having vasodilative activity” (Kyowa Hakko Kogyo Co., Ltd., priority 1989, dated 1991)
